Earlier results on one compound are cited in patent publication US20150307774A1, “Chelates, chelating agents, conjugates derived thereof and their use” (priority 2012, published 2015).

For this data set the following is noted: at this pH (7.4), calculated from literature data.

As for `O=C(O)CN(CCN(CC(=O)O)CC(=O)O)CC(=O)O` [EDTA], the conditional stability constant is 14.53 Log units.
